In the supplement of paper PMC10883282:
± gives the standard deviation of the averaged measurements.

Test system: KHOS-NP
Assay: relative viability vs DMSO control (72 h) (fraction); higher = more viable cells
Outline: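 Sarcoma cell lines were seeded in 384-well plates at densities set to reach 80–90% confluence. After 24 h, 2.5 µl of serially diluted compound was added (source plates 10 mM to 0.0002 mM), and plates were held 72 h at 37 °C, 5% CO2, with 0.1% DMSO vehicle and a 5 µM positive control. Relative viability came from ATPLite readings as percent growth, averaged over up to triplicate wells. Data were rescaled so full viability equals 1 and none equals 0.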

Structure (SMILES)	relative viability (0.00017 µM)	relative viability (0.00051 µM)	relative viability (0.00152 µM)	relative viability (0.00457 µM)	relative viability (0.01372 µM)	relative viability (0.04115 µM)	relative viability (0.1235 µM)	relative viability (0.3704 µM)	relative viability (1.111 µM)	relative viability (3.333 µM)	relative viability (10 µM)
Cc1cc(C)c(/C=C2\C(=O)Nc3ccccc32)[nH]1 [Semaxanib]	1.04 ± 0.035	1.04 ± 0.025	1.05 ± 0.028	1.05 ± 0.037	1.03 ± 0.041	1.05 ± 0.02	1.04 ± 0.03	1 ± 0.027	0.989 ± 0.027	1.002 ± 0.008	0.927 ± 0.025
O=C(Nc1cnn2ccc(N3CCC[C@@H]3c3cc(F)ccc3F)nc12)N1CC[C@H](O)C1 [Larotrectinib]	1.1 ± 0.025	1.09 ± 0.013	1.08 ± 0.016	1.09 ± 0.024	1.1 ± 0.016	1.06 ± 0.03	1.05 ± 0.053	1.08 ± 0.021	1.05 ± 0.027	1.02 ± 0.014	1.01 ± 0.038
C=CC(=O)N1CCC[C@@H](n2nc(-c3ccc(Oc4ccccc4)cc3)c3c(N)ncnc32)C1 [Ibrutinib]	1.08 ± 0.025	1.086 ± 0.0071	1.08 ± 0.025	1.07 ± 0.013	1.05 ± 0.032	1.04 ± 0.014	1.05 ± 0.015	1.01 ± 0.045	1.034 ± 0.01	1.03 ± 0.043	0.995 ± 0.043
CC(C)N1CCN(Cc2cnc(-c3cc(-c4cccc5[nH]ccc45)cc4[nH]ncc34)o2)CC1 [Nemiralisib]	1.01 ± 0.024	1.02 ± 0.024	1.02 ± 0.029	1.01 ± 0.03	1.01 ± 0.026	1.02 ± 0.013	1.02 ± 0.021	1.03 ± 0.018	1.04 ± 0.038	1.03 ± 0.038	1.01 ± 0.034
CN1CCN(c2ccc3nc(-c4c(N)c5c(F)cccc5[nH]c4=O)[nH]c3c2)CC1 [Dovitinib]	1.08 ± 0.038	1.11 ± 0.018	1.107 ± 0.0074	1.104 ± 0.007	1.13 ± 0.025	1.11 ± 0.029	1.1 ± 0.033	1.04 ± 0.07	1.03 ± 0.035	0.677 ± 0.029	0.248 ± 0.032
COc1c(OCCCN2CCOCC2)ccc2c1N=C(NC(=O)c1cnc(N)nc1)N1CCN=C21 [Copanlisib]	1.1 ± 0.042	1.1 ± 0.029	1.11 ± 0.015	1.088 ± 0.0075	1.075 ± 0.01	1.04 ± 0.029	1.003 ± 0.01	0.907 ± 0.021	0.523 ± 0.014	0.198 ± 0.0088	0.146 ± 0.011
CNC(=O)c1ccc(-c2cnc3ncc(Cc4ccc5ncccc5c4)n3n2)cc1F [Capmatinib]	1.1 ± 0.021	1.08 ± 0.016	1.098 ± 0.0065	1.06 ± 0.023	1.094 ± 0.0089	1.1 ± 0.032	1.09 ± 0.021	1.07 ± 0.035	1.09 ± 0.023	1.09 ± 0.021	1.09 ± 0.026
Cn1cc(-c2cc3c(N4CCN(c5ncc([C@@](C)(N)c6ccc(F)cc6)cn5)CC4)ncnn3c2)cn1 [Avapritinib]	1.021 ± 0.0094	1.05 ± 0.031	1.02 ± 0.027	1.04 ± 0.029	1.03 ± 0.017	1.03 ± 0.015	1 ± 0.022	0.948 ± 0.041	0.861 ± 0.024	0.685 ± 0.033	0.586 ± 0.048
CCCS(=O)(=O)Nc1ccc(F)c(C(=O)c2c[nH]c3ncc(-c4ccc(Cl)cc4)cc23)c1F [Vemurafenib]	1.08 ± 0.029	1.074 ± 0.0078	1.08 ± 0.032	1.09 ± 0.017	1.09 ± 0.025	1.08 ± 0.023	1.09 ± 0.03	1.08 ± 0.03	1.07 ± 0.034	1.06 ± 0.018	0.601 ± 0.031
CC1(C)CNc2cc(NC(=O)c3cccnc3NCc3ccncc3)ccc21 [Motesanib]	1.03 ± 0.03	1.04 ± 0.021	1.03 ± 0.021	1.01 ± 0.028	1.02 ± 0.037	1.02 ± 0.023	1.03 ± 0.013	1.03 ± 0.021	1 ± 0.021	0.973 ± 0.024	0.882 ± 0.048
C=CC(=O)Nc1cccc(Oc2nc(Nc3ccc(N4CCN(C)CC4)cc3)nc3ccsc23)c1 [Olmutinib]	1.058 ± 0.01	1.06 ± 0.011	1.068 ± 0.0024	1.067 ± 0.0084	1.07 ± 0.019	1.08 ± 0.026	1.054 ± 0.0094	1.074 ± 0.0078	1.06 ± 0.017	1.04 ± 0.029	0.926 ± 0.081
COc1cc2nccc(Oc3ccc(NC(=O)Nc4cc(C)on4)c(Cl)c3)c2cc1OC [Tivozanib]	1.08 ± 0.013	1.06 ± 0.016	1.06 ± 0.027	1.08 ± 0.021	1.074 ± 0.005	1.06 ± 0.034	1.09 ± 0.018	1.05 ± 0.031	1.06 ± 0.023	1.03 ± 0.027	0.719 ± 0.015
CNC(=O)c1cc(Oc2ccc(NC(=O)Nc3ccc(Cl)c(C(F)(F)F)c3)c(F)c2)ccn1 [Regorafenib]	1.09 ± 0.013	1.11 ± 0.012	1.12 ± 0.019	1.12 ± 0.013	1.112 ± 0.0027	1.1 ± 0.016	0.787 ± 0.57	1.07 ± 0.018	0.938 ± 0.055	0.569 ± 0.014	0.238 ± 0.083
Cc1ccc(F)c(NC(=O)Nc2ccc(-c3cccc4[nH]nc(N)c34)cc2)c1 [Linifanib]	1.1 ± 0.012	1.1 ± 0.016	1.09 ± 0.027	1.09 ± 0.024	1.05 ± 0.016	1.07 ± 0.015	1.052 ± 0.0063	1.05 ± 0.039	1.03 ± 0.037	0.968 ± 0.019	1.01 ± 0.059
Cc1cnc(Nc2ccc(OCCN3CCCC3)cc2)nc1Nc1cccc(S(=O)(=O)NC(C)(C)C)c1 [Fedratinib]	1.09 ± 0.023	1.08 ± 0.049	1.08 ± 0.05	1.09 ± 0.016	1.07 ± 0.022	1.06 ± 0.018	1.02 ± 0.029	1.01 ± 0.039	0.905 ± 0.046	0.511 ± 0.017	0.216 ± 0.0037
C=CC(=O)N1CCC([C@@H]2CCNc3c(C(N)=O)c(-c4ccc(Oc5ccccc5)cc4)nn32)CC1 [Zanubrutinib]	1.01 ± 0.015	1.03 ± 0.024	1.03 ± 0.032	1.01 ± 0.015	1.041 ± 0.0094	1.05 ± 0.018	1.01 ± 0.013	1.04 ± 0.015	1.02 ± 0.023	1.01 ± 0.029	1.05 ± 0.03
CN1CCC(COc2cnc(-c3cccc(Cn4nc(-c5cccc(C#N)c5)ccc4=O)c3)nc2)CC1 [Tepotinib]	1.09 ± 0.054	1.11 ± 0.024	1.11 ± 0.012	1.09 ± 0.013	1.08 ± 0.012	1.08 ± 0.026	1.07 ± 0.015	1.03 ± 0.023	1.01 ± 0.023	0.995 ± 0.021	0.975 ± 0.014
Cc1nc(NC(=O)N2CCC[C@H]2C(N)=O)sc1-c1ccnc(C(C)(C)C(F)(F)F)c1 [Alpelisib]	1.07 ± 0.031	1.073 ± 0.0087	1.06 ± 0.024	1.05 ± 0.021	1.03 ± 0.028	1.02 ± 0.018	1.02 ± 0.067	1.04 ± 0.014	0.992 ± 0.053	0.9227 ± 0.0047	0.828 ± 0.049
